Laboratory results from patent US11028061B2, “Modulators of myocyte lipid accumulation and insulin resistance and methods of use thereof” (Sanford Burnham Prebys Medical Discovery Institute, priority 2015, dated 2021).

The compounds below were run on primary murine skeletal myocytes (assay: TAG accumulation in primary murine skeletal myocytes). Settings: Mus musculus, read-out: Activity Score (IC50), triacylglyceride (TAG) accumulation.
Type: cell-based

| SMILES | IC50 [nM] |
| --- | --- |
| COc1ccc(-c2csc(C(=O)Nc3ccc(OCC(=O)N4CCOCC4)c(OC)c3)n2)cc1 [Cpd. 91, N-(3-methoxy-4-(2-morpholino-2-oxoethoxy)phenyl)-4-(4-methoxyphenyl)thiazole-2-carboxamide] | > 10000 |
| COc1ccc(-c2csc(NC(=O)c3ccc(OCC(=O)N4CCC(=O)CC4)c(OC)c3)n2)cc1 [Cpd. 12, 3-methoxy-N-(4-(4-methoxyphenyl)thiazol-2-yl)-4-(2-oxo-2-(4-oxopiperidin-1-yl)ethoxy)benzamide] | 1000 to 10000 |

Same assay, conditions: Mus musculus; primary murine skeletal myocytes; read-out: Activity Score (IC50), triacylglyceride (TAG) accumulation

| SMILES | IC50 [nM] |
| --- | --- |
| COc1cc(C(=O)Nc2nc(-c3ccc(Cl)c(Cl)c3)cs2)ccc1OCC(=O)N1CCOCC1 [Cpd. 37, N-(4-(3,4-dichlorophenyl)thiazol-2-yl)-3-methoxy-4-(2-morpholino-2-oxoethoxy)benzamide] | < 1000 |
| COCCNC(=O)CNc1ccc(C(=O)Nc2nc(-c3ccc(OC)cc3)cs2)cc1 [compound 69, 4-((2-((2-methoxyethyl)amino)-2-oxoethyl)amino)-N-(4-(4-methoxyphenyl)thiazol-2-yl)benzamide] | > 10000 |
| COc1ccc(-c2csc(NC(=O)c3ccc(OCC(=O)N4CCCCC4)c(OC)c3)n2)cc1 [Cpd. 8, 3-methoxy-N-(4-(4-methoxyphenyl)thiazol-2-yl)-4-(2-oxo-2-(piperidin-1-yl)ethoxy)benzamide] | 1000 to 10000 |
| COCCCNC(=O)COc1ccc(C(=O)Nc2nc(-c3ccc(OC)cc3)cs2)cc1OC [Cpd. 21, 3-methoxy-N-(4-(4-methoxyphenyl)thiazol-2-yl)-4-(2-((3-methoxypropyl)amino)-2-oxoethoxy)benzamide] | 1000 to 10000 |
| COCCNC(=O)CNc1ccc(C(=O)Nc2nc(-c3ccc(OC)cc3Cl)cs2)cc1 [compound 73, N-(4-(2-chloro-4-methoxyphenyl)thiazol-2-yl)-4-((2-((2-methoxyethyl)amino)-2-oxoethyl)amino)benzamide] | < 1000 |
| COCCNC(=O)COc1ccc(C(=O)Nc2nc(-c3ccc(OC)cc3)cs2)cc1OC [Cpd. 20, 3-methoxy-4-(2-((2-methoxyethyl)amino)-2-oxoethoxy)-N-(4-(4-methoxyphenyl)thiazol-2-yl)benzamide] | 1000 to 10000 |
| Cc1ccccc1-c1csc(NC(=O)c2ccc(OCC(=O)N3CCOCC3)cc2)n1 [Cpd. 47, 4-(2-morpholino-2-oxoethoxy)-N-(4-(o-tolyl)thiazol-2-yl)benzamide] | < 1000 |
| COc1ccc(-c2csc(NC(=O)C3CCC(OCC(=O)N4CCOCC4)CC3)n2)cc1 (centres unmarked) [Cpd. 97, N-(4-(4-methoxyphenyl)thiazol-2-yl)-4-(2-morpholino-2-oxoethoxy)cyclohexane-1-carboxamide] | > 10000 |
| COc1cc(C(=O)Nc2nc(-c3ccccc3)c(Cc3ccccc3)s2)ccc1OCC(=O)N1CCOCC1 [Cpd. 84, N-(5-benzyl-4-phenylthiazol-2-yl)-3-methoxy-4-(2-morpholino-2-oxoethoxy)benzamide] | < 1000 |
| COc1cc(C(=O)Nc2nc(-c3ccc(C#N)cc3)cs2)ccc1O [Cpd. 6, N-(4-(4-cyanophenyl)thiazol-2-yl)-4-hydroxy-3-methoxybenzamide] | 1000 to 10000 |
| COc1cc(C(=O)Nc2nc(Cc3ccccc3)cs2)ccc1OCC(=O)N1CCOCC1 [Cpd. 85, N-(4-benzylthiazol-2-yl)-3-methoxy-4-(2-morpholino-2-oxoethoxy)benzamide] | 1000 to 10000 |
| COc1ccc(-c2csc(NC(=O)c3ccc(OCC(=O)NC4CCC4)c(OC)c3)n2)cc1 [Cpd. 22, 4-(2-(cyclobutylamino)-2-oxoethoxy)-3-methoxy-N-(4-(4-methoxyphenyl)thiazol-2-yl)benzamide] | < 1000 |
| O=C(Nc1nc(-c2ccccc2)cs1)c1cccc(OCC(=O)N2CCOCC2)c1 [Cpd. 95, 3-(2-morpholino-2-oxoethoxy)-N-(4-phenylthiazol-2-yl)benzamide] | 1000 to 10000 |
| COc1cc(C(=O)Nc2nc(-c3ccccc3)cs2)ccc1O [Cpd. 2, 4-hydroxy-3-methoxy-N-(4-phenylthiazol-2-yl)benzamide] | > 10000 |
| CCc1ccc(-c2csc(NC(=O)c3ccc(OCC(=O)N4CCOCC4)cc3)n2)cc1 [Cpd. 44, N-(4-(4-ethylphenyl)thiazol-2-yl)-4-(2-morpholino-2-oxoethoxy)benzamide] | < 1000 |
| COc1ccc(-c2csc(NC(=O)c3ccc(OCC(N)=O)cc3)n2)c(Cl)c1 [Cpd. 57, 4-(2-amino-2-oxoethoxy)-N-(4-(2-chloro-4-methoxyphenyl)thiazol-2-yl)benzamide] | 1000 to 10000 |
| COc1ccc(-c2csc(NC(=O)c3ccc(O)c(OC)c3)n2)cc1 [Cpd. 1, 4-hydroxy-3-methoxy-N-(4-(4-methoxyphenyl)thiazol-2-yl)benzamide] | > 10000 |
| COc1cc(C(=O)Nc2ncc(-c3ccccc3)s2)ccc1OCC(=O)N1CCOCC1 [compound 79, 3-methoxy-4-(2-morpholino-2-oxoethoxy)-N-(5-phenylthiazol-2-yl)benzamide] | > 10000 |
| COc1ccc(-c2csc(NC(=O)c3ccc(OCC(=O)N4CCN(C)CC4)c(OC)c3)n2)cc1 [Cpd. 9, 3-methoxy-N-(4-(4-methoxyphenyl)thiazol-2-yl)-4-(2-(4-methylpiperazin-1-yl)-2-oxoethoxy)benzamide] | < 1000 |
| COc1cc(C(=O)Nc2nc(-c3ccc(Cl)cc3)cs2)ccc1O [Cpd. 4, N-(4-(4-chlorophenyl)thiazol-2-yl)-4-hydroxy-3-methoxybenzamide] | 1000 to 10000 |

| SMILES | IC50 [nM] |
| --- | --- |
| COc1cc(C(=O)Nc2nc(-c3ccccc3)cs2)ccc1OCC(=O)N1CCOCC1 [Cpd. 25, 3-methoxy-4-(2-morpholino-2-oxoethoxy)-N-(4-phenylthiazol-2-yl)benzamide] | < 1000 |
| COc1cc(C(=O)Nc2nc(-c3ccc(OC(F)(F)F)cc3)cs2)ccc1OCC(=O)N1CCOCC1 [Cpd. 26, 3-methoxy-4-(2-morpholino-2-oxoethoxy)-N-(4-(4-(trifluoromethoxy)phenyl)thiazol-2-yl)benzamide] | < 1000 |
| COc1ccc(-c2csc(NC(=O)c3ccc(N)c(OC)c3)n2)cc1 [compound 77, 4-amino-3-methoxy-N-(4-(4-methoxyphenyl)thiazol-2-yl)benzamide] | 1000 to 10000 |
| COc1ccc(-c2csc(NC(=O)c3ccc(OCC(=O)N(C)C)cc3)n2)c(Cl)c1 [Cpd. 60, N-(4-(2-chloro-4-methoxyphenyl)thiazol-2-yl)-4-(2-(dimethylamino)-2-oxoethoxy)benzamide] | < 1000 |
| COc1ccc(-c2csc(NCc3ccc(OCC(=O)N4CCOCC4)c(OC)c3)n2)cc1 [Cpd. 89, 2-(2-methoxy-4-(((4-(4-methoxyphenyl)thiazol-2-yl)amino)methyl)phenoxy)-1-morpholinoethan-1-one] | 1000 to 10000 |
| COc1ccc(-c2csc(NC(=O)c3ccc(OCCN4CCOCC4)c(OC)c3)n2)cc1 [Cpd. 90, 3-methoxy-N-(4-(4-methoxyphenyl)thiazol-2-yl)-4-(2-morpholinoethoxy)benzamide] | 1000 to 10000 |
| COc1cc(C(=O)Nc2nc(-c3ccc4c(c3)OCO4)cs2)ccc1OCC(=O)N1CCOCC1 [Cpd. 39, N-(4-(benzo[d][1,3]dioxol-5-yl)thiazol-2-yl)-3-methoxy-4-(2-morpholino-2-oxoethoxy)benzamide] | 1000 to 10000 |
| COc1ccc(-c2csc(NC(=O)c3ccc(OCC(=O)N4CCOCC4)c(OC)c3)n2)c(OC)c1 [Cpd. 36, N-(4-(2,4-dimethoxyphenyl)thiazol-2-yl)-3-methoxy-4-(2-morpholino-2-oxoethoxy)benzamide] | < 1000 |
| COc1ccc(-c2csc(NC(=O)c3ccc(OCC(=O)NCc4ccccn4)c(OC)c3)n2)cc1 [Cpd. 24, 3-methoxy-N-(4-(4-methoxyphenyl)thiazol-2-yl)-4-(2-oxo-2-((pyridin-2-ylmethyl)amino)ethoxy) Benzamide] | > 10000 |
| O=C(Nc1nc(-c2ccc(F)cc2)cs1)c1ccc(OCC(=O)N2CCOCC2)cc1 [Cpd. 46, N-(4-(4-fluorophenyl)thiazol-2-yl)-4-(2-morpholino-2-oxoethoxy)benzamide] | < 1000 |
| COc1ccc2nc(NC(=O)c3ccc(OCC(=O)N4CCOCC4)cc3)sc2c1 [Cpd. 88, N-(6-methoxybenzo[d]thiazol-2-yl)-4-(2-morpholino-2-oxoethoxy)benzamide] | 1000 to 10000 |
| CCN(CCN(C)C)C(=O)COc1ccc(C(=O)Nc2nc(-c3ccc(OC)cc3)cs2)cc1OC [Cpd. 15, 4-(2-((2-(dimethylamino)ethyl)(ethyl)amino)-2-oxoethoxy)-3-methoxy-N-(4-(4-methoxyphenyl)thiazol-2-yl)benzamide] | > 10000 |
| COc1cc(C(=O)Nc2nc(-c3ccc(Cl)c(Cl)c3)cs2)ccc1O [Cpd. 5, N-(4-(3,4-dichlorophenyl)thiazol-2-yl)-4-hydroxy-3-methoxybenzamide] | 1000 to 10000 |
| COC(=O)CNC(=O)COc1ccc(C(=O)Nc2nc(-c3ccc(OC)cc3)cs2)cc1OC [Cpd. 16, Methyl (2-(2-methoxy-4-((4-(4-methoxyphenyl)thiazol-2-yl)carbamoyl)phenoxy)acetyl)glycinate] | > 10000 |
| COc1cc(C(=O)Nc2nc(-c3ccc([N+](=O)[O-])cc3)cs2)ccc1OCC(=O)N1CCOCC1 [Cpd. 33, 3-methoxy-4-(2-morpholino-2-oxoethoxy)-N-(4-(4-nitrophenyl)thiazol-2-yl)benzamide] | < 1000 |
| COc1cc(C(=O)Nc2nc(-c3ccc(C)cc3)cs2)ccc1OCC(=O)N1CCOCC1 [Cpd. 30, 3-methoxy-4-(2-morpholino-2-oxoethoxy)-N-(4-(p-tolyl)thiazol-2-yl)benzamide] | < 1000 |
| CNC(=O)CNc1ccc(C(=O)Nc2nc(-c3ccc(OC)cc3Cl)cs2)cc1 [compound 71, N-(4-(2-chloro-4-methoxyphenyl)thiazol-2-yl)-4-((2-(methylamino)-2-oxoethyl)amino)benzamide] | < 1000 |
| COc1ccc(-c2csc(NC(=O)c3ccc(OCC(=O)N4CCOCC4)cc3)n2)cc1 [Cpd. 41, N-(4-(4-methoxyphenyl)thiazol-2-yl)-4-(2-morpholino-2-oxoethoxy)benzamide] | < 1000 |
| COc1cc(C(=O)Nc2nc(-c3ccc(O)cc3)cs2)ccc1OCC(=O)N1CCOCC1 [Cpd. 27, N-(4-(4-hydroxyphenyl)thiazol-2-yl)-3-methoxy-4-(2-morpholino-2-oxoethoxy)benzamide] | < 1000 |
